According to US20100093642A1, “NOVEL POLYPEPTIDES” (priority 2006, published 2010):
No end group written: not given here.

Key:
[1] = system: human breast malignant carcinoma cell line MCF-7; format: cell-based; settings: 24 h
Method: The cytotoxic effects of the peptides on different human tumour cells were measured using the MTT colorimetric assay (Mosmann, 1983). […] Dissolved MIT is converted to an insoluble purple formazan by cleavage of the tetrazolium ring by dehydrogenase enzymes. This water insoluble formazan can be solubilized using isopropanol or other solvents and the dissolved material is measured spectrophotometrically. The absorbance was measured as a function of concentration of converted dye. The conversion of the soluble dye to the insoluble purple formazan is utilized in assays for measurement of cell proliferation. […] We used this assay to measure the degree of cell death caused by the peptides. MCF-7 was maintained in EMEM, A2058 in DMEM and […]-29 in RPMI-1640 medium supplemented with 10% heat inactivated […] and 1% L-glutamine-L-alanine in a humidified atmosphere of 5% CO2 at 37° C. The human embryonic fibroblast cell line, MRC-5 (which is normal fibroblasts), was cultured as a monolayer in MEM medium, under the same conditions as described for the tumour cell lines. Cells to be used in the assay were grown to a minimum of 75% confluency, trypsinated and split to single cell suspension, counted and centrifuged at 1500 rpm for 10 min. The cell pellet was resuspended to a concentration of 2×10^5 cells/ml (HT-29) or 1×10^5 (MRC-5, MCF7 and A2058) in DMEM without FBS and L-glutamine-L-alanine (assay-medium). All cell lines were routinely tested for mycoplasma infection using a PCR-based mycoplasma detection kit (MycoSensor PCR Assay Kit, Stratagene), following the supplier's instructions. All cell lines were mycoplasma free. The cytotoxicity was measured using the MTT method (Mosmann, 1983), with minor modifications. Different human tumour cells (1-2×10^5) were applied in 96-well culture plates in a volume of 100 μl DMEM medium and incubated at 37° C. for 24 hours. The medium was removed and the cells were treated with 100 μl of peptide solution (concentrations ranging from 0 to 200 μg/ml), diluted in a) RPMI-1640 medium supplemented with 5% heat inactivated FBS, or b) RPMI-1640 medium without FBS. The plates were incubated at 37° C. for 24 hours. Cells treated with Triton X-100 (1%) was used as positive control (100% killing) whereas cells plus medium only were used as negative control. […] A volume of 70 μl of the supernatant was then removed and […] (0.04 M HCl in isopropanol) added to each well. The plate was placed on a shaker for 1 hour at room temperature and read spectrophotometrically at 590 nm in a microtiter plate reader (DTX880 Multimode Detector, Beckman Coulter).

Pseudomonas aeruginosa = format: cell-based
Method: (§1) The antibacterial activities of the different peptides were determined by continuous monitoring of bacterial growth with a Bioscreen C microbiology reader (Labsystems Oy, Helsinki, Finland). The test was performed in 100-well flat-bottomed honeycomb plates, in which 50 μl of test fractions were incubated with 50 μl of a suspension of an actively growing culture of bacteria diluted in Mueller Hinton medium to a starting concentration of 3×10^4 cells per ml. […] [NT] 13032) and S. aureus (ATCC 9144), were chosen as test bacteria. […] Polymyxin B (Sigma, St.

[2] = system: Candida albicans (ATCC 10231); settings: ATCC 10231, 48 h
Method: (§2) The various derivates of P17 (brominated and non-brominated) were tested for their ability to inhibit fungal growth of the yeast strains Saccaharomyces cerevisiae sp, Candida albicans (ATCC 10231) and Rodotorula sp., and the filamentous strains Botrytis cinerea 101, Penicillium rogveforti, and Fusarium sp. All strains, except C. albicans, were a gift from Prof. A. Tronsmo (The Norwegian University of Life Sciences, Ås, Norway). The fungi were cultivated on potato dextrose agar, supplemented with 2% glucose, at room temperature. Before antifungal testing, the fungi were dissolved in potato dextrose broth (Difco) at half-strength. Cell concentration was determined and adjusted after counting in a Bürker chamber. The filamentous fungi were filtered through a piece of cotton before counting. An aliquot of 50 μl of fungal spores (final concentration 2×10^5 spores per ml) were inoculated in microtiter plates (96 wells) along with 50 μl peptide solution. Peptides, dissolved in distilled water, were tested at final concentrations (two-fold dilutions) ranging from 50 μM to 0.1 μM. Cultures were grown in the dark (without shaking) and with a moist chamber at 25° C. (37° C. for C. albicans). Growth inhibition was determined microscopically after 48 h of incubation. MIC was determined as the lowest concentration of peptide resulting in 50% inhibition of visible growth.

Saccharomyces cerevisiae = settings: 48 h
Method: as §2

Botrytis cinerea 101 = settings: 48 h
Method: as §2

S. aureus (ATCC 9144) = format: cell-based, Staphylococcus aureus; settings: ATCC 9144
Method: as §1

E. coli (ATCC 25922) = format: cell-based, Escherichia coli
Method: as §1

TNF-α = assay: Inhibition of LPS induced TNF-α response in THP-1 cells (ELISA); format: cell-based, human; settings: Ratio TC50 (THP-1)/EC50 (anti-TNFα)
Method: FIG. 12. Antiinnflammatory response measured as inhibition of tumor necrosis factor alpha (TNF-α) response in THP-1 cells after stimulation with LPS. THP-1 cells (1×10^6 cells/ml) were treated with P17 derivates in different concentrations for 1 hour, and subsequently stimulated with 100 ng/ml LPS for 6 hours. LPS was used as control for induction of TNF-α. (set as 100% response), RPMI media was used as negative (non-stimulated) control, and cycloheximide (Chx, 10 μg/ml) was used as a an inhibitory control for LPS induced TNF-α. The data presented are the average of two parallells. (A) The effect of the peptides P17 HC and P17 HC (1-20). (B) The effect of the peptides P17 HC (11-20) and P17 HC-Br.
The THP-1 cells (ATCC, TIB-202) were maintained in suspension in RPMI-1640 medium with 25 mM HEPES and 2 mM Glutamax I supplemented with 10% FBS (growth medium) in a humidified atmosphere of 5% CO2 at 37° C. Cells to be used in the assay were grown to a density of 8×10^5-1×10^6 cells/ml. The cells were centrifuged for 7 min at 200 g and the cell pellet was resuspended to a concentration of 10^6 cells/ml in RPMI-1640 with 10% FBS.
To allow examination of antiinflammatory effects of the peptides on basal and stimulated cytokine production, peptide-treated macrophages were cultured in the presence of LPS and the levels of TNF-α were measured. The primary screening was based on a mammalian cell line; the human THP-1 line. This line is of monocyte/macrophage origin and responds to various stimuli by increased production of cytokines, like TNF-α and the IL-1β, (Wang et al. 2000). To induce monocyte-macrophage differentiation, THP-1 cells were cultured in 96-well culture plates (10^6 cells/well) in a volume of 100 μl RPMI 1640 medium, containing 50 ng/ml PMA (which is known to induce the maturation of monocytes) and incubated in a humidified atmosphere of 5% CO2, at 37° C. for 48 hours. The medium was then removed and the cells were washed with PBS, added 100 μl fresh medium (without PMA) and incubated for another 24 hours. Medium was removed and the adherent macrophages were treated with 100 μl of peptide solution (concentrations ranging from 0 to 400 μg/ml), diluted in RPMI-1640 medium with 25 mM HEPES and 2 mM Glutamax I, but without […] (assay medium). After incubation at 37° C. for 1 hour, the cells were added LPS (0.1 μg/ml) and further incubated for 6 hours. […] TNF-α concentrations were quantified by the Human TNF-α ELISA MAX kit (BioLegend), according to the manufacturer's instructions. Duplicate readings for each standard, control and sample were recorded. The average absorbance for each set of standards, controls, and samples was calculated using a standard curve. Concentrations were determined by extrapolation on the standard curve.

[3] = system: C. glutamicum (ATCC 13032); format: cell-based, Corynebacterium glutamicum
Method: as §1

Sequence: SHAVKSGIHA [P17 HC (11-20)]
- IC50 [1]: 103 µM
- Minimal inhibitory concentration, P. aeruginosa (Pseudomonas aeruginosa): >100 µM
- Minimal inhibitory concentration (MIC), Candida albicans [2]: >100 µM
- Minimal inhibitory concentration (MIC), Saccharomyces cerevisiae (Saccharomyces cerevisiae): >100 µM
- Minimal inhibitory concentration (MIC), Botrytis cinerea (Botrytis cinerea 101): >100 µM
- Minimal inhibitory concentration, S. aureus (S. aureus (ATCC 9144)): >100 µM
- Minimal inhibitory concentration, E. coli (E. coli (ATCC 25922)): >100 µM
- Therapeutic index TC50/EC50 (TNF-α): >2.2
- Minimal inhibitory concentration, C. glutamicum [3]: >100 µM
